# Results: patent US6964870B2, “Enhanced selection of genetically modified pine embryogenic tissue” (MeadWestvaco Corporation, priority 2000, dated 2005)
# Assays:
# Format in all cases: cell-based
# [1] = system: P. rigida Hybrid embryogenic cell line H1; experiment: Agrobacterium transformation, transformants per selection plate with ABA in preparation/recovery/selection media
# Excerpt: (§1) Seven loblolly pine cell lines or hybrid cell lines from seven widely diverse genetic backgrounds were used in this experiment. To prepare for gene transfer using Agrobacterium, fabric supports were sterilized by autoclaving and placed in a sterile Buchner funnel, and one to five milliliters of embryogenic suspension was pipetted onto each support such that the embryogenic tissue was evenly distributed over its surface. Following this the liquid medium was suctioned from the tissues and each support bearing the embryogenic tissue was placed on gelled medium for inoculation by Agrobacterium. In this case the medium used was the same as the preparation medium described in Example 1 above, except that the medium, used here for preparation and co-cultivation of the cells, contained ABA at 0, 10, or 30 mg/L as an experimental condition. Genes were then introduced into the plant material by co-cultivation with Agrobacterium(Wenck et al. 1999). Specifically, gene constructs containing a reporter gene and a selectable marker were introduced into Agrobacterium tumefaciens strain EHA105 with the virulence-enhancing plasmid pTOK47 (Wenck et al. 1999), by techniques well known to those skilled in the art, and virulence was then induced with administration of acetosyringone by commonly used techniques, well known to those skilled in the art, whereupon the induced Agrobacterium was dripped over the plant material and these were co-cultivated in the dark at 23°±2° C. for approximately 24-72 hours. Those skilled in the art recognize that many different gene constructs, plasmids, strains, media, and co-cultivation times and protocols would be suitable for use in the present method.
# (§2) Following co-cultivation, cells were re-suspended into fresh DCR4 liquid wash medium (Table 2) containing eradicants such as 200-400 mg/L TIMENTIN® antibiotic. The DCR4 liquid wash medium was contained in sterile “baby food” jars with MAGENTA® aerated lids, conventional beakers, or multi-well plates. Resuspension was initiated by grasping the membrane support bearing the infected cells, using forceps, and rolling or folding it so that it could be taken up and placed into the liquid in the wash container. The liquid was then agitated to get the cells into suspension, and the membrane support was scraped with sterile forceps if cells appeared to be adhering to it. Once the cells were in suspension, the membrane was removed with sterile forceps.
# (§3) Following this wash step, the cells were plated onto fresh sterile support membranes of the same type as used in the previous step, again by placing the fresh sterile support membranes in a sterile Buchner funnel, pipetting the suspension of plant cells onto the membranes, and again suctioning the liquid medium from the tissues using a mild vacuum. The cells were again resuspended in and cultured in fresh sterile wash medium by agitating the membrane bearing the cells in the liquid, again removing cells that appeared to be adhering by gently scraping with forceps. The cells were then re-plated on fresh membrane supports over Buchner funnels. This procedure was repeated twice before the cells were again plated on supports as described above.
# (§4) Supports bearing approximately 0.1 g of embryogenic tissue were divided onto recovery media (having the same formulation as the maintenance medium except for the addition of 400 mg/L TIMENTIN® antibiotic) either containing or lacking ABA. […] Concentrations of ABA used in all these media were 0, 10, and 30 mg/l.
# (§5) Cells were maintained on the selection media, with transfer of the polyester support membranes to fresh selection media of the same composition, every two weeks for a total of eight weeks of selection. Cells from actively growing sublines from selection were examined using stereomicroscopes for the expression of the visual marker gene uidA at the conclusion of the selection period. […]
# [2] = system: P. taeda embryogenic cell line P1; experiment: as above
# Excerpt: as §1, §2, §3, §4, §5
# [3] = system: P. taeda embryogenic cell line P2; experiment: as above
# Excerpt: as §1, §2, §3, §4, §5
# [4] = system: P. taeda embryogenic cell line P3; experiment: as above
# Excerpt: as §1, §2, §3, §4, §5
# [5] = system: P. taeda embryogenic cell line P4; experiment: as above
# Excerpt: as §1, §2, §3, §4, §5
# [6] = system: P. taeda embryogenic cell line P5; experiment: as above
# Excerpt: as §1, §2, §3, §4, §5
# [7] = system: P. taeda embryogenic cell line P6; experiment: as above
# Excerpt: as §1, §2, §3, §4, §5
# [8] = system: cell lines that are progeny of the elite P. taeda line 7-56; experiment: Biolistic transformation, ABA in recovery and selection media (Example 2)
# Protocol: Loblolly pine cell lines were used which had been grown and maintained as described in Example 1 above, and prepared for biolistic transformation as described in Example 1 above. In this example, only cell lines that are progeny of the elite P. taeda line 7-56 were used. Following bombardment the support membranes bearing the bombarded embryogenic cells were transferred to DCR2 maintenance media, either with or without the addition of 10 mg/l ABA for one week. Following this the support membranes bearing the bombarded embryogenic cells were placed on plates containing gelled DCR selection medium with 10 mg/l abscisic acid (ABA), and cultured for three days, so that all cells were exposed to 10 mg/l ABA in the selection medium for the first three days of selection. Following this the support membranes bearing the bombarded embryogenic cells were evenly divided among gelled media containing 5, 10, or 20 mg/l ABA for a period of two weeks. Following this, the support membranes bearing the bombarded embryogenic cells were evenly divided among gelled media containing 0, 5, 10, or 20 mg/l ABA for the remaining selection period, and transferred every three weeks to fresh selection media of the same composition.
# The cells were also checked for the presence of sequences by PCR amplification using primers specific for both the uidA and nptII transgenes, techniques well known to those skilled in the art of plant transformation.
# [9] = ABA mg/l in preparation/recovery/selection medium 0/0/10
# [10] = ABA mg/l in preparation/recovery/selection medium 0/0/30
# [11] = ABA mg/l in preparation/recovery/selection medium 0/10/10
# [12] = ABA mg/l in preparation/recovery/selection medium 0/10/30
# [13] = ABA mg/l in preparation/recovery/selection medium 0/30/30
# [14] = ABA mg/l in preparation/recovery/selection medium 10/10/10
# [15] = ABA mg/l in preparation/recovery/selection medium 30/10/10
# [16] = ABA mg/l in preparation/recovery/selection medium 30/30/30
compound,measurement,setting,value
"CC1=CC(=O)CC(C)(C)[C@@]1(O)/C=C/C(C)=C\C(=O)O [ABA, abscisic acid]",Average (n = 12) Number of Transformants observed per Selection Plate,[1]; [9],27.0 +/− 11.2
same,Average (n = 12) Number of Transformants observed per Selection Plate,[1]; [10],21.1 +/− 6.5
same,Average (n = 12) Number of Transformants observed per Selection Plate,[1]; [11],19.0 +/− 6.5
same,Average (n = 12) Number of Transformants observed per Selection Plate,[1]; [12],21.6 +/− 8.6
same,Average (n = 12) Number of Transformants observed per Selection Plate,[1]; [13],15.1 +/− 4.9
same,Average (n = 12) Number of Transformants observed per Selection Plate,[1]; [14],21.9 +/− 8.4
same,Average (n = 12) Number of Transformants observed per Selection Plate,[1]; [15],22.9 +/− 10.1
same,Average (n = 12) Number of Transformants observed per Selection Plate,[1]; [16],21.8 +/− 9.9
same,Average (n = 12) Number of Transformants observed per Selection Plate,[2]; [9],0.3 +/− 0.9
same,Average (n = 12) Number of Transformants observed per Selection Plate,[2]; [10],0.0 +/− 0.0
same,Average (n = 12) Number of Transformants observed per Selection Plate,[2]; [11],0.0 +/− 0.0
same,Average (n = 12) Number of Transformants observed per Selection Plate,[2]; [12],0.1 +/− 0.3
same,Average (n = 12) Number of Transformants observed per Selection Plate,[2]; [13],0.8 +/− 0.6
same,Average (n = 12) Number of Transformants observed per Selection Plate,[2]; [14],1.3 +/− 0.9
same,Average (n = 12) Number of Transformants observed per Selection Plate,[2]; [15],0.3 +/− 0.5
same,Average (n = 12) Number of Transformants observed per Selection Plate,[2]; [16],0.4 +/− 0.8
same,Average (n = 12) Number of Transformants observed per Selection Plate,[3]; [9],5.8 +/− 2.3
same,Average (n = 12) Number of Transformants observed per Selection Plate,[3]; [10],8.8 +/− 4.8
same,Average (n = 12) Number of Transformants observed per Selection Plate,[3]; [11],1.0 +/− 1.0
same,Average (n = 12) Number of Transformants observed per Selection Plate,[3]; [12],0.3 +/− 0.5
same,Average (n = 12) Number of Transformants observed per Selection Plate,[3]; [13],5.2 +/− 6.1
same,Average (n = 12) Number of Transformants observed per Selection Plate,[3]; [14],10.0
same,Average (n = 12) Number of Transformants observed per Selection Plate,[3]; [15],5.9 +/− 2.4
same,Average (n = 12) Number of Transformants observed per Selection Plate,[3]; [16],5.3 +/− 2.5
same,Average (n = 12) Number of Transformants observed per Selection Plate,[4]; [9],21.7 +/− 3.6
same,Average (n = 12) Number of Transformants observed per Selection Plate,[4]; [10],22.3 +/− 5.4
same,Average (n = 12) Number of Transformants observed per Selection Plate,[4]; [11],23.3 +/− 2.8
same,Average (n = 12) Number of Transformants observed per Selection Plate,[4]; [12],26.0 +/− 6.9
same,Average (n = 12) Number of Transformants observed per Selection Plate,[4]; [13],18.6 +/− 5.1
same,Average (n = 12) Number of Transformants observed per Selection Plate,[4]; [14],22.6 +/− 4.3
same,Average (n = 12) Number of Transformants observed per Selection Plate,[4]; [15],21.6 +/− 3.6
same,Average (n = 12) Number of Transformants observed per Selection Plate,[4]; [16],21.1 +/− 2.3
same,Average (n = 12) Number of Transformants observed per Selection Plate,[5]; [9],27.5 +/− 11.4
same,Average (n = 12) Number of Transformants observed per Selection Plate,[5]; [10],34.9 +/− 9.7
same,Average (n = 12) Number of Transformants observed per Selection Plate,[5]; [11],28.8 +/− 11.6
same,Average (n = 12) Number of Transformants observed per Selection Plate,[5]; [12],30.9 +/− 9.3
same,Average (n = 12) Number of Transformants observed per Selection Plate,[5]; [13],28.6 +/− 7.6
same,Average (n = 12) Number of Transformants observed per Selection Plate,[5]; [14],27.8 +/− 9.0
same,Average (n = 12) Number of Transformants observed per Selection Plate,[5]; [15],22.7 +/− 7.0
same,Average (n = 12) Number of Transformants observed per Selection Plate,[5]; [16],27.3 +/− 7.4
same,Average (n = 12) Number of Transformants observed per Selection Plate,[6]; [9],18.1 +/− 4.0
same,Average (n = 12) Number of Transformants observed per Selection Plate,[6]; [10],5.5 +/− 3.1
same,Average (n = 12) Number of Transformants observed per Selection Plate,[6]; [11],2.4 +/− 2.0
same,Average (n = 12) Number of Transformants observed per Selection Plate,[6]; [12],7.2 +/− 2.1
same,Average (n = 12) Number of Transformants observed per Selection Plate,[6]; [13],3.3 +/− 2.1
same,Average (n = 12) Number of Transformants observed per Selection Plate,[6]; [14],10.3 +/− 2.4
same,Average (n = 12) Number of Transformants observed per Selection Plate,[6]; [15],11.3 +/− 2.4
same,Average (n = 12) Number of Transformants observed per Selection Plate,[6]; [16],14.3 +/− 3.5
same,Average (n = 12) Number of Transformants observed per Selection Plate,[7]; [9],3.9 +/− 1.5
same,Average (n = 12) Number of Transformants observed per Selection Plate,[7]; [10],3.3 +/− 2.8
same,Average (n = 12) Number of Transformants observed per Selection Plate,[7]; [11],3.2 +/− 1.4
same,Average (n = 12) Number of Transformants observed per Selection Plate,[7]; [12],3.2 +/− 1.5
same,Average (n = 12) Number of Transformants observed per Selection Plate,[7]; [13],2.3 +/− 2.6
same,Average (n = 12) Number of Transformants observed per Selection Plate,[7]; [14],4.5 +/− 1.3
same,Average (n = 12) Number of Transformants observed per Selection Plate,[7]; [15],3.1 +/− 2.3
same,Average (n = 12) Number of Transformants observed per Selection Plate,[7]; [16],2.3 +/− 1.1
same,number of transformants detected,[8]; 10 mg/L ABA in the recovery media,did not significantly increase the number of transformants detected
same,transformants recovered after ten weeks of selection,"[8]; 5, 10, or 20 mg/l ABA present for the latter 9 weeks of selection",Transformants were recovered
same,transformants recovered after ten weeks of selection,[8]; ABA concentration increased to 20 mg/l after the first transfer on selection media,the largest number of transformants were recovered
